Measured values taken from US20260183301A1, “TREATING DISEASES AND DISORDERS WITH IRAK4-MODIFYING COMPOUNDS” (Curis, Inc., priority 2022, published 2026).
Entries after “also recorded” stand apart in the source; their conditions may differ.

Key:
[1] = Phase I dose escalation trial in NHL: safety and tolerance (adverse effects, DLT)
Description: (§1) Seven dosing cohorts included 50 and 100 mg QD, and 50, 100, 200, 300, or 400 mg BID of daily continuous oral monotherapy in 21-Day cycles. Objective included safety and tolerance (primary), pk/pd and early efficacy (secondary), and biomarker correlations (exploratory). 31 patients with resistant or refractory, advanced NHL have been enrolled.

[2] = test system: NF-kB p-p50 S337; assay: Western blot of NF-kB p-p50 S337 in TF-1 (AML) cells; assay type: cell-based; conditions: 3 μM and 10 μM, 48 h, vs DMSO
Description: At 48 h post-treatment, cell lysates were obtained. Protein sample concentration was quantified and equal amount 20 μg of whole protein extract was loaded in each well of SDS-polyacrylamide gel. Cell extracts were separated by 10% SDS-PAGE, transferred to nitrocellulose membrane, and probed as indicated. The following antibodies were used for immunoblot analysis: NF-kB p-p50 S337 (Santa Cruz Biotechnology) and b-actin (Cell Signaling Technology).

[3] = Oral pharmacokinetics in humans; assay type: in vivo, human
Description: as §1

[4] = 300 mg BID, N = 6, [E] not defined
[5] = 400 mg BID, N = 8, [E] not defined

Cc1cc(-c2nc(C(=O)Nc3cc4oc(N5CCOCC5)nc4nc3N3CC[C@@H](O)C3)co2)ccn1 [Compound 1, emavusertib]
Rhabdomyolysis, Grade 3 or 4 ([1]; 300 mg BID (n = 6)): 0%
Upper respiratory infection, All Grades ([1]; 300 mg BID (n = 6)): 0%
Upper respiratory infection, Grade 3 or 4 ([1]; 300 mg BID (n = 6)): 0%
Vomiting, All Grades ([1]; 300 mg BID (n = 6)): 20%
Vomiting, Grade 3 or 4 ([1]; 300 mg BID (n = 6)): 20%
Anemia, All Grades ([1]; 300 mg BID, N = 6): 2 (33.3) n (%)
Anemia, Grade 3 or Higher ([1]; 300 mg BID, N = 6): 0 n (%)
Neutropenia, All Grades ([1]; 300 mg BID, N = 6): 1 (16.7) n (%)
Neutropenia, Grade 3 or Higher ([1]; 300 mg BID, N = 6): 1 (16.7) n (%)
Thrombocytopenia, All Grades ([1]; 300 mg BID, N = 6): 0 n (%)
Thrombocytopenia, Grade 3 or Higher ([1]; 300 mg BID, N = 6): 0 n (%)
Anemia, All Grades [E] [1, 4]: [3]
Neutropenia, All Grades [E] [1, 4]: [5]
Neutropenia, Grade 3 or Higher [E] [1, 4]: [1]
DLT ([1]; 300 mg BID, six patients): without DLT
Back pain, All Grades ([1]; 400 mg BID (n = 8)): 12.5%
Back pain, Grade 3 or 4 ([1]; 400 mg BID (n = 8)): 0%
Constipation, All Grades ([1]; 400 mg BID (n = 8)): 20%
Constipation, Grade 3 or 4 ([1]; 400 mg BID (n = 8)): 0%
Cough, All Grades ([1]; 400 mg BID (n = 8)): 0%
Cough, Grade 3 or 4 ([1]; 400 mg BID (n = 8)): 0%
Dehydration, All Grades ([1]; 400 mg BID (n = 8)): 12.5%
Dehydration, Grade 3 or 4 ([1]; 400 mg BID (n = 8)): 0%
Diarrhea, All Grades ([1]; 400 mg BID (n = 8)): 25%
Diarrhea, Grade 3 or 4 ([1]; 400 mg BID (n = 8)): 0%
Dizziness, All Grades ([1]; 400 mg BID (n = 8)): 25%
Dizziness, Grade 3 or 4 ([1]; 400 mg BID (n = 8)): 0%
Dyspnoe, All Grades ([1]; 400 mg BID (n = 8)): 12.5%
Dyspnoe, Grade 3 or 4 ([1]; 400 mg BID (n = 8)): 12.5%
Fatigue, All Grades ([1]; 400 mg BID (n = 8)): 50%
Fatigue, Grade 3 or 4 ([1]; 400 mg BID (n = 8)): 0%
Headache, All Grades ([1]; 400 mg BID (n = 8)): 12.5%
Headache, Grade 3 or 4 ([1]; 400 mg BID (n = 8)): 0%
Insomnia, All Grades ([1]; 400 mg BID (n = 8)): 12.5%
Insomnia, Grade 3 or 4 ([1]; 400 mg BID (n = 8)): 0%
Muscle weakness, All Grades ([1]; 400 mg BID (n = 8)): 12.5%
Muscle weakness, Grade 3 or 4 ([1]; 400 mg BID (n = 8)): 0%
Myalgia, All Grades ([1]; 400 mg BID (n = 8)): 37.5%
Myalgia, Grade 3 or 4 ([1]; 400 mg BID (n = 8)): 0%
Nausea, All Grades ([1]; 400 mg BID (n = 8)): 50%
Nausea, Grade 3 or 4 ([1]; 400 mg BID (n = 8)): 0%
Oedema, All Grades ([1]; 400 mg BID (n = 8)): 0%
Oedema, Grade 3 or 4 ([1]; 400 mg BID (n = 8)): 0%
Peripheral sensory neuropathy, All Grades ([1]; 400 mg BID (n = 8)): 25%
Peripheral sensory neuropathy, Grade 3 or 4 ([1]; 400 mg BID (n = 8)): 0%
Rhabdomyolysis, All Grades ([1]; 400 mg BID (n = 8)): 25%
Rhabdomyolysis, Grade 3 or 4 ([1]; 400 mg BID (n = 8)): 25%
Upper respiratory infection, All Grades ([1]; 400 mg BID (n = 8)): 12.5%
Upper respiratory infection, Grade 3 or 4 ([1]; 400 mg BID (n = 8)): 0%
Vomiting, All Grades ([1]; 400 mg BID (n = 8)): 25%
Vomiting, Grade 3 or 4 ([1]; 400 mg BID (n = 8)): 0%
Anemia, All Grades ([1]; 400 mg BID, N = 8): 1 (12.5) n (%)
Anemia, Grade 3 or Higher ([1]; 400 mg BID, N = 8): 1 (12.5) n (%)
Neutropenia, All Grades ([1]; 400 mg BID, N = 8): 2 (25.0) n (%)
Neutropenia, Grade 3 or Higher ([1]; 400 mg BID, N = 8): 0 n (%)
Thrombocytopenia, All Grades ([1]; 400 mg BID, N = 8): 1 (12.5) n (%)
Thrombocytopenia, Grade 3 or Higher ([1]; 400 mg BID, N = 8): 1 (12.5) n (%)
Anemia, All Grades [E] [1, 5]: [1]
Anemia, Grade 3 or Higher [E] [1, 5]: [1]
Neutropenia, All Grades [E] [1, 5]: [3]
Thrombocytopenia, All Grades [E] [1, 5]: [2]
Thrombocytopenia, Grade 3 or Higher [E] [1, 5]: [2]
DLT-evaluable patients with Grade 3 rhabdomyolysis (DLTs) ([1]; 400 mg BID, reversible after treatment interruption): 2 of 5
Grade 3 combined episodes of neutropenia, anemia, thrombocytopenia ([1]; 18 patients at 200 to 400 mg BID): 4
toxic deaths ([1]; Phase I NHL): No toxic deaths
overall safety and tolerance ([1]; Phase I NHL, 50 mg QD to 400 mg BID): well tolerated; also recorded: good safety and tolerance
creatine phosphokinase (CPK) elevation, grade ([1]; WM patient, 200 mg po BID, asymptomatic, resolved with exercise moderation): grade 2
tolerability ([1]; WM patient, continuous oral treatment for close to 18 months): well tolerated
tolerability ([1]; WM patient, first dose level 50 mg): without adverse events
safety and tolerability profile ([1]; at RP2D (300 mg BID)): acceptable safety and tolerability profile
grade of most non-hematologic TEAEs ([1]; diarrhea, vomiting, fatigue, dyspnea, myalgia): Grade 1 or 2
expression of NF-kB p-p50 S337 [2]: downregulated
accumulation ([3]; multiple daily single dose administration): Minimal to no accumulation
absorption ([3]; oral administration): rapidly absorbed
exposure versus dose ([3]; oral administration): dose-proportional increase in exposure
time of maximum plasma concentrations ([3]; oral administration, post dose): 0.5 to 8 h
accumulation ([3]; steady state, multiple twice daily dose administration): Moderate accumulation
